Source: PubChem BioAssay (NCI)
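Compound exposure: 48 hours, 5 concentrations, 96-well plates. TGI: concentration producing complete growth inhibition.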

Columns and labels:
Assay in all cases: NCI anticancer screen, dose series, 48 h
COLO 205 colon = system: COLO 205 colon
MDA-N = system: MDA-N
NCI/ADR-RES ovarian = system: NCI/ADR-RES ovarian
SW-620 colon = system: SW-620 colon
RPMI-8226 leukemia = system: RPMI-8226 leukemia
SN12C renal = system: SN12C renal
SK-OV-3 ovarian = system: SK-OV-3 ovarian
HL-60(TB) leukemia = system: HL-60(TB) leukemia
HCC-2998 colon = system: HCC-2998 colon
UACC-257 melanoma = system: UACC-257 melanoma
T-47D breast = system: T-47D breast
ACHN renal = system: ACHN renal
PC-3 prostate = system: PC-3 prostate
NCI-H522 lung = system: NCI-H522 lung
UO-31 renal = system: UO-31 renal
SF-295 CNS = system: SF-295 CNS
EKVX NSCLC = system: EKVX NSCLC
U251 CNS = system: U251 CNS
MDA-MB-231 breast = system: MDA-MB-231 breast
HS 578T breast = system: HS 578T breast
MOLT-4 leukemia = system: MOLT-4 leukemia
HOP-92 NSCLC = system: HOP-92 NSCLC
IGROV1 ovarian = system: IGROV1 ovarian
LOX IMVI melanoma = system: LOX IMVI melanoma
SK-MEL-2 melanoma = system: SK-MEL-2 melanoma
MDA-MB-435 = system: MDA-MB-435
MALME-3M melanoma = system: MALME-3M melanoma
MCF7 breast = system: MCF7 breast
SR leukemia = system: SR leukemia
OVCAR-8 ovarian = system: OVCAR-8 ovarian
NCI-H23 lung = system: NCI-H23 lung
BT-549 breast = system: BT-549 breast
HCT-116 colon = system: HCT-116 colon
OVCAR-4 ovarian = system: OVCAR-4 ovarian
786-0 renal = system: 786-0 renal
KM12 colon = system: KM12 colon
DU-145 prostate = system: DU-145 prostate
SNB-75 CNS = system: SNB-75 CNS
SK-MEL-5 melanoma = system: SK-MEL-5 melanoma
SK-MEL-28 melanoma = system: SK-MEL-28 melanoma
NCI-H460 lung = system: NCI-H460 lung
UACC-62 melanoma = system: UACC-62 melanoma
CCRF-CEM leukemia = system: CCRF-CEM leukemia
HT29 colon = system: HT29 colon
CAKI-1 renal = system: CAKI-1 renal
A549 NSCLC = system: A549 NSCLC
HOP-62 NSCLC = system: HOP-62 NSCLC
SF-539 CNS = system: SF-539 CNS
SF-268 CNS = system: SF-268 CNS
HCT-15 colon = system: HCT-15 colon
SNB-19 CNS = system: SNB-19 CNS
OVCAR-3 ovarian = system: OVCAR-3 ovarian
OVCAR-5 ovarian = system: OVCAR-5 ovarian
K-562 leukemia = system: K-562 leukemia
M14 melanoma = system: M14 melanoma

O=[N+]([O-])c1ccc(NC(=S)N=Nc2c(O)[nH]c3ccccc23)cc1
TGI (COLO 205 colon): 26.3 µM | TGI (MDA-N): 30.2 µM | TGI (NCI/ADR-RES ovarian): 23.7 µM | TGI (SW-620 colon): 34.2 µM | TGI (RPMI-8226 leukemia): > 100 µM | TGI (SN12C renal): 63 µM | TGI (SK-OV-3 ovarian): 14.8 µM | TGI (HL-60(TB) leukemia): > 100 µM | TGI (HCC-2998 colon): 26.7 µM | TGI (UACC-257 melanoma): 47.3 µM | TGI (T-47D breast): 37.7 µM | TGI (ACHN renal): 21.1 µM | TGI (PC-3 prostate): 16.6 µM | TGI (NCI-H522 lung): 34.9 µM | TGI (UO-31 renal): 19.3 µM | TGI (SF-295 CNS): 21.5 µM | TGI (EKVX NSCLC): 43 µM | TGI (U251 CNS): 38.7 µM | TGI (MDA-MB-231 breast): 13.9 µM | TGI (HS 578T breast): 59.8 µM | TGI (MOLT-4 leukemia): 19.8 µM | TGI (HOP-92 NSCLC): 30.7 µM | TGI (IGROV1 ovarian): 29.3 µM | TGI (LOX IMVI melanoma): 36.3 µM | TGI (SK-MEL-2 melanoma): 23.3 µM | TGI (MDA-MB-435): 53.7 µM | TGI (MALME-3M melanoma): 21.9 µM | TGI (MCF7 breast): 38.1 µM | TGI (SR leukemia): > 100 µM | TGI (OVCAR-8 ovarian): 3.16 µM | TGI (NCI-H23 lung): 54.5 µM | TGI (BT-549 breast): 55.4 µM | TGI (HCT-116 colon): 18.6 µM | TGI (OVCAR-4 ovarian): 79.6 µM | TGI (786-0 renal): 18.4 µM | TGI (KM12 colon): 78.2 µM | TGI (DU-145 prostate): 29.5 µM | TGI (SNB-75 CNS): 31.4 µM | TGI (SK-MEL-5 melanoma): 24 µM | TGI (SK-MEL-28 melanoma): 36.9 µM | TGI (NCI-H460 lung): 29.2 µM | TGI (UACC-62 melanoma): 24 µM | TGI (CCRF-CEM leukemia): > 100 µM | TGI (HT29 colon): > 100 µM | TGI (CAKI-1 renal): 21.7 µM | TGI (A549 NSCLC): 21.5 µM | TGI (HOP-62 NSCLC): 18.1 µM | TGI (SF-539 CNS): 31.1 µM | TGI (SF-268 CNS): 37.9 µM | TGI (HCT-15 colon): 16.7 µM | TGI (SNB-19 CNS): 36.4 µM | TGI (OVCAR-3 ovarian): 28.1 µM | TGI (OVCAR-5 ovarian): 43.3 µM | TGI (K-562 leukemia): > 100 µM | TGI (M14 melanoma): 25.7 µM
